According to patent US6740662B1, “Naphthyridine derivatives” (Yamanouchi Pharmaceutical Co., Ltd., priority 1999, dated 2004):
Where a name gives a salt, the structure may show the parent alone.

Experiments:
[1] = system: P450 drug metabolizing enzyme present in the liver microsome; test: In vitro drug metabolism test using liver microsome; type: in vitro ADME; conditions: human and rat liver microsome, test compound 20 ng/ml, 37° C., 10, 20 and 30 minutes, residual ratio
Method: 1) Human and rat liver microsome suspension (human microsome: Xenotech, rat microsome: Charles River) was diluted with 100 mM Na-K phosphate buffer (pH 7.4) to a protein concentration of 0.5 mg/ml. To a 100 μl portion of this suspension were added 2 μl of a test compound solution (a 10 μg/ml acetonitrile solution), 500 μl of 200 mM Na-K phosphate buffer (pH 7.4), 50 μl of 1 mM EDTA-NaOH (pH 7.4) and 200 μl of purified water, thereby preparing a substrate solution (concentration in the reaction solution: liver microsome (as the protein content) 0.05 mg/ml, test compound 20 ng/ml, 100 mM Na-K phosphate buffer, 0.1 mM EDTA-NaOH).
2) An NADPH production system was prepared by mixing 42 mg of NADP, 5 ml of 100 mM […] (G6P) and 5 ml of 100 mM MgCl2, and adding 57 μl of G6P dehydrogenase (about 1750 U/5 mg/ml) to the mixture. This was heated at 37° C. for 5 minutes and then ice-cooled until its use.
3) A 900 μl portion of the substrate solution was pre-incubated at 37° C. for 5 minutes, and then 100 μl of the NADPH production system was added thereto, following by reaction at 37° C. for 10, 20 and 30 minutes. After termination of the reaction by adding 2 ml of ethyl acetate, the whole was ice-cooled. In this connection, a control sample was prepared by adding 100 μl of the NADPH production system after adding 2 ml of ethyl acetate (0 minute reaction).
4) To the reaction solution was added 100 μl of an internal standard substance having a predetermined concentration (an acetonitrile solution), 1 ml of 0.5 M phosphoric acid and 2 ml of ethyl acetate, followed by shaking for 10 minutes. After 10 minutes of centrifugation at 2,500 rpm, the ethyl acetate layer was separated and evaporated to dryness, and the residue was dissolved in 100 μl of an HPLC mobile phase solvent. The test compound was eluted after about 12 minutes, and the internal standard substance after about 16 minutes, under the following conditions. (HPLC measuring conditions mobile phase: acetonitrile/20 mM ammonium acetate=2:3 (v/v), column: Discovery RP Amide C16, 4.6×35 mm (SUPELCO), flow rate: 0.8 ml/min., detection: UV 286 nm)
5) A ratio (residual ratio) of the peak height ratio after 10, 20 or 30 minutes of the reaction to the peak height ratio of each test compound in the control (peak height ratio to the internal standard substance) was calculated.

[2] = Oral absorbability and pharmacokinetic profile evaluation test using type IV PDE inhibitory activity as the index; type: in vivo; conditions: orally administered to male Fisher rat at 3 mg/kg; plasma type IV PDE inhibitory activity as index; in comparison with a comparative compound
Method: Test Example 3. Oral absorbability and pharmacokinetic profile evaluation test using type IV PDE inhibitory activity as the index
The following assay was carried out in order to evaluate oral absorbability and pharmacokinetic profiles of the type IV PDE-inhibiting compounds of the invention.
1) Each test compound suspended in purified water containing 0.5% methyl cellulose was orally administered to a seven-week-old male Fisher rat at a dose of 3 mg/kg. In the control group, a solvent (0.5% methyl cellulose in purified water, 3 ml/kg) was administered in the same manner. After the oral administration, blood samples were periodically collected in the presence of heparin from the caudal vein of each rat under ether anesthesia, and plasma was prepared in the usual way.
2) The plasma prepared from each rat administered with the test compound or solvent was added to the type IV PDE measuring system shown in the above Test Example 1 so as to be a final concentration of 0.1%, and the type IV PDE inhibitory activity was measured.

Row | melting point [°C] | metabolism by the P450 drug metabolizing enzyme present in the liver microsome [1] | SMILES | oral absorbability and metabolic stability [2]
1 | 225 to 227 | – | CCn1c(=O)c(C2CCNCC2)c(-c2cccc(Cl)c2)c2ccc(C)nc21 (as salt: fumarate) [Example 28, 4-(3-chlorophenyl)-1-ethyl-7-methyl-3-(piperidin-4-yl)-1,8-naphthyridin-2(1H)-one monofumarate] | –
2 | 161 to 162 | – | CCn1c(=O)c(CCC(=O)O)c(-c2cccc(Br)c2)c2ccc(C)nc21 [Example 46, 3-[4-(3-bromophenyl)-1-ethyl-7-methyl-2-oxo-1,2-dihydro-1,8-naphthyridin-3-yl]propanoic acid] | –
3 | 140 to 141 | – | CCn1c(=O)c(CCCNS(C)(=O)=O)c(-c2cccc(Cl)c2)c2ccc(C)nc21 [Example 14, N-{3-[4-(3-chlorophenyl)-1-ethyl-7-methyl-2-oxo-1,2-dihydro-1,8-naphthyridin-3-yl]propyl}methanesulfonamide] | –
4 | 96 to 97 | – | CCn1c(=O)c(CCCOC)c(-c2cccc(Cl)c2)c2ccc(C)nc21 [Example 35, 4-(3-chlorophenyl)-1-ethyl-3-(3-methoxypropyl)-7-methyl-1,8-naphthyridin-2(1H)-one] | –
5 | 183 to 184 | – | CCOC(=O)Nc1c(-c2cccc(Cl)c2)c2ccc(C)nc2n(CC)c1=O [Example 9, ethyl N-[4-(3-chlorophenyl)-1-ethyl-7-methyl-2-oxo-1,2-dihydro-1,8-naphthyridin-3-yl]carbamate] | –
6 | 197 to 199 | hardly metabolized | CCn1c(=O)c(CCC(=O)O)c(-c2cccc(Cl)c2)c2ccc(Cl)nc21 [Example 41, 3-[7-chloro-4-(3-chlorophenyl)-1-ethyl-2-oxo-1,2-dihydro-1,8-naphthyridin-3-yl]propanoic acid] | good oral absorbability and metabolic stability
7 | 207 to 209 | hardly metabolized | CCn1c(=O)c(CCc2nnn[nH]2)c(C2CCCCC2)c2ccc(C)nc21 [Example 79] | good oral absorbability and metabolic stability
8 | 155 to 158 | – | CCn1c(=O)c(CCCc2nnn[nH]2)c(-c2cccc(Cl)c2)c2ccc(C)nc21 [Example 70, 4-(3-chlorophenyl)-1-ethyl-7-methyl-3-[3-(1H-tetrazol-5-yl)propyl]-1,8-naphthyridin-2(1H)-one] | –
9 | 167 to 171 | – | CCn1c(=O)c(N)c(-c2cccc(Cl)c2)c2ccc(C)nc21 [Example 10, 3-amino-4-(3-chlorophenyl)-1-ethyl-7-methyl-1,8-naphthyridin-2(1H)-one] | –
10 | 249 to 252 | – | CCn1c(=O)c(C(N)=O)c(-c2cccc(Cl)c2)c2ccc(C)nc21 [Example 4, 4-(3-chlorophenyl)-1-ethyl-7-methyl-2-oxo-1,2-dihydro-1,8-naphthyridin-3-carboxamide] | –
11 | 157 to 160 | – | CCn1c(=O)c(CCC(=O)O)c(-c2cccc(Cl)c2)c2ccc(CO)nc21 [Example 42, 3-[4-(3-chlorophenyl)-1-ethyl-7-hydroxymethyl-2-oxo-1,2-dihydro-1,8-naphthyridin-3-yl]propanoic acid] | –
12 | 92 to 93 | – | CCn1c(=O)c(CCCOC(=O)OC)c(-c2cccc(Cl)c2)c2ccc(C)nc21 [Example 34, 4-(3-chlorophenyl)-1-ethyl-3-[3-(methoxycarbonyloxy)propyl]-7-methyl-1,8-naphthyridin-2(1H)-one] | –
13 | 254 to 256 | hardly metabolized | CCn1c(=O)c(-c2cccc(C(=O)O)c2)c(-c2cccc(Cl)c2)c2ccc(C)nc21 [Example 21, 3-[4-(3-chlorophenyl)-1-ethyl-7-methyl-2-oxo-1,2-dihydro-1,8-naphthyridin-3-yl]benzoic acid] | good oral absorbability and metabolic stability
14 | 202 to 204 | – | CCn1c(=O)c(CCC(=O)O)c(-c2cccc(Cl)c2)c2ccc(NC)nc21 [Example 44, 3-[4-(3-chlorophenyl)-1-ethyl-7-methylamino-2-oxo-1,2-dihydro-1,8-naphthyridin-3-yl]propanoic acid] | –
15 | 146 to 148 | – | CCn1c(=O)c(CCCC(=O)O)c(-c2cccc(Cl)c2)c2ccc(C)nc21 (hydrate or solvate) [Example 61, 4-[4-(3-chlorophenyl)-1-ethyl-7-methyl-2-oxo-1,2-dihydro-1,8-naphthyridin-3-yl]butanoic acid] | –
16 | 174 to 175 | hardly metabolized | CCn1c(=O)c(CCC(=O)O)c(-c2cccc(C)c2)c2ccc(C)nc21 [Example 77, 3-[1-ethyl-7-methyl-4-(3-methylphenyl)-2-oxo-1,2-dihydro-1,8-naphthyridin-3-yl]propanoic acid] | good oral absorbability and metabolic stability
17 | – | hardly metabolized | CCn1c(=O)c(CCC(=O)O)c(-c2cccc(Cl)c2)c2ccc(C)nc21 [Example 2, 3-[4-(3-chlorophenyl)-1-ethyl-7-methyl-2-oxo-1,2-dihydro-1,8-naphthyridin-3-yl]propanoic acid] | good oral absorbability and metabolic stability
18 | – | hardly metabolized | CCn1c(=O)c(C2CCNCC2)c(-c2cccc(Cl)c2)c2ccc(C)nc21 [Example 28, 4-(3-chlorophenyl)-1-ethyl-7-methyl-3-(piperidin-4-yl)-1,8-naphthyridin-2(1H)-one monofumarate] | good oral absorbability and metabolic stability
19 | 109 to 110 | – | CCn1c(=O)c(CCCO)c(-c2cccc(Cl)c2)c2ccc(C)nc21 [Example 16, 4-(3-chlorophenyl)-1-ethyl-3-(3-hydroxypropyl)-7-methyl-1,8-naphthyridin-2(1H)-one] | –
20 | 228 to 230 | – | CCn1c(=O)c(CCC(=N)N)c(-c2cccc(Cl)c2)c2ccc(C)nc21 (as salt: hydrochloride) [Example 40, 3-(2-amidinoethyl)-4-(3-chlorophenyl)-1-ethyl-7-methyl-1,8-naphthyridin-2(1H)-one monohydrochloride] | –
21 | 155 to 156 | hardly metabolized | CCn1c(=O)c(CCC(=O)O)c(C2CCCCC2)c2ccc(C)nc21 [Example 47, 3-(4-cyclohexyl-1-ethyl-7-methyl-2-oxo-1,2-dihydro-1,8-naphthyridin-3-yl)propanoic acid] | good oral absorbability and metabolic stability
22 | 134 to 136 | – | CCn1c(=O)c(CCC(=O)N(C)C)c(-c2cccc(Cl)c2)c2ccc(C)nc21 [Example 6, 3-[4-(3-chlorophenyl)-1-ethyl-7-methyl-2-oxo-1,2-dihydro-1,8-naphthyridin-3-yl]-N,N-dimethylpropanamide] | –
23 | 188 to 189 | – | CCn1c(=O)c(CCC(=O)O)c(-c2cccs2)c2ccc(C)nc21 [Example 78] | –
24 | 194 to 196 | – | CCn1c(=O)c(CCc2nnn[nH]2)c(-c2cccc(Br)c2)c2ccc(C)nc21 [Example 80] | –
25 | 142 to 146 | – | CCn1c(=O)c(CCN2CCC(C(=O)O)CC2)c(-c2cccc(Cl)c2)c2ccc(C)nc21 [Example 38, 1-{2-[4-(3-chlorophenyl)-1-ethyl-7-methyl-2-oxo-1,2-dihydro-1,8-naphthyridin-3-yl]ethyl}piperidine-4-carboxylic acid] | –
26 | 119 to 121 | – | CCOC(=O)c1c(-c2cccc(Cl)c2)c2ccc(C)nc2n(CC)c1=O [Example 1, ethyl 4-(3-chlorophenyl)-1-ethyl-7-methyl-2-oxo-1,2-dihydro-1,8-naphthyridin-3-carboxylate] | –
